Assay results reported in PubChem BioAssay AID2630 (Broad Institute, 2010).
Where “and” joins values, the source holds several entries; their conditions need not be identical. Equal entries are not always repeated. Results filed as inconclusive are left out.

Tested on: T. cruzi beta-gal in NIH3T3, GalScreen luminescence, 90 h
Experiment: T. cruzi infection blockers in NIH3T3 cells – beta-gal luminescence, NIH3T3 host cells, confirmation (AID 2630)

SMILES | EC50
CN(Cc1ccccc1)C(=O)C1CCCN(Cc2cccc(Cl)c2)C1 (configuration not stated) | 231 nM and 34.7 nM
CC(C)Oc1cccc(C(=O)C2CCCN(Cc3cnn(C(C)C)c3)C2)c1 (configuration not stated) | 68 nM and 16.5 nM
